# Results reported in patent publication US4618669A, “S-(carbamoyl-phenylselenyl) derivatives of glutathione and of aminomercaptocarboxylic acids” (A. Nattermann & Cie GmbH, priority 1984, dated 1986).
# Assay: Glutathione-peroxidase-like activity, reaction rates by the method of A. Wendel
# Type: biochemical
# Details: relative to S-(2-phenylcarbamoyl-phenylselenyl) glutathione, taken as 100%; tert-butylhydroperoxide; in vitro
# Method: The measuring of the glutathione peroxidase-like activity is carried out by the method of A. Wendel (A. Wendel, Methods in Enzymology, vol. 77, 325-333 (1981)). In this experiment, the reaction of the co-substrate nicotine […]-dinucleotide-phosphate is measured. The reducing agent in this case is not glutathione, but the […] containing aminoacid which has been used for the synthesis of the respective compounds. […] In in vitro-experiments, the catalysis of the peroxidase destruction has been examined. It was found, that the compounds of the present invention can replace the glutathioneperoxidase. [drawing 5] The reaction rates were measured by the method of A. Wendel (A. Wendel, Methods in Enzymology, vol. 77, pages 325-333 (1981)).
row,catalytic activity (%),Structure (SMILES)
1,92,NC(CCC(=O)NC(CS[Se]c1cc(F)ccc1C(=O)Nc1ccccc1)C(=O)NCC(=O)O)C(=O)O [S-(2-Phenylcarbamoyl-5-fluoro-phenylselenyl)-L-glutathione]
2,225,COc1cccc(C(=O)Nc2ccccc2)c1[Se]SCC(NC(=O)CCC(N)C(=O)O)C(=O)NCC(=O)O [S-(2-phenylcarbamoyl-6-methoxy-phenylselenyl)-L-glutathione]
3,39,NC(CCC(=O)NC(CS[Se]c1ccccc1C(=O)Nc1ccccc1Cl)C(=O)NCC(=O)O)C(=O)O [S-[2-(2-chlorphenylcarbamoyl)-phenylselenyl]-L-glutathione]
4,124,COc1ccc(NC(=O)c2ccccc2[Se]SCC(NC(=O)CCC(N)C(=O)O)C(=O)NCC(=O)O)cc1 [S-[2-(4-Methoxyphenylcarbamoyl)-phenylselenyl]-L-glutathione]
5,63,COc1ccc(C(=O)Nc2ccccc2)c([Se]SCC(NC(=O)CCC(N)C(=O)O)C(=O)NCC(=O)O)c1 [S-(2-phenylcarbamoyl-5-methoxy-phenylselenyl)-L-glutathione]
6,99,NC(CCC(=O)NC(CS[Se]c1cc(Cl)ccc1C(=O)Nc1ccccc1)C(=O)NCC(=O)O)C(=O)O [S-(2-phenylcarbamoyl-5-chlor-phenylselenyl)-L-glutathione]
7,49,NC(CCC(=O)NC(CS[Se]c1ccccc1C(=O)Nc1ccc(C(F)(F)F)cc1)C(=O)NCC(=O)O)C(=O)O [S-[2-(4-trifluormethylphenylcarbamoyl)-phenylselenyl]-L-glutathione]
8,21,"N[C@@H](CCC(=O)N[C@@H](CS[Se]c1ccccc1C(=O)Nc1ccc(Cl)c(Cl)c1)C(=O)NCC(=O)O)C(=O)O [S-[2-(3,4-Dichlorophenylcarbamoyl)-phenylselenyl]-L-glutathione]"
9,116,NC(CCC(=O)NC(CS[Se]c1ccccc1C(=O)Nc1ccc(Cl)cc1)C(=O)NCC(=O)O)C(=O)O [S-[2-(4-Chlorophenylcarbamoyl)-phenylselenyl]-L-glutathione]
10,113,NC(CCC(=O)NC(CS[Se]c1ccccc1C(=O)Nc1cccc(F)c1)C(=O)NCC(=O)O)C(=O)O [S-[2-(3-fluorophenylcarbamoyl)-phenylselenyl]-L-glutathione]
11,121,NC(CCC(=O)NC(CS[Se]c1ccccc1C(=O)Nc1ccc([N+](=O)[O-])cc1)C(=O)NCC(=O)O)C(=O)O [S-[2-(4-nitrophenylcarbamoyl)-phenylselenyl]-L-glutathione]

row,Structure (SMILES),catalytic activity (%)
1,N[C@@H](CS[Se]c1ccccc1C(=O)Nc1ccccc1)C(=O)O [S-(2-Phenylcarbamoyl-phenylselenyl)-L-cysteine],210
2,COc1ccccc1NC(=O)c1ccccc1[Se]SCC(NC(=O)CCC(N)C(=O)O)C(=O)NCC(=O)O [S--[2-(2-methoxyphenylcarbamoyl)-phenylselenyl]-L--glutathione],37
3,CC(=O)N[C@@H](CS[Se]c1ccccc1C(=O)Nc1ccccc1)C(=O)O [S-(2-Phenylcarbamoyl-phenylselenyl)-N-acetyl-L-cysteine],40
4,CC(=O)N[C@@H](CS[Se]c1ccccc1C(=O)Nc1ccc(F)cc1)C(=O)O [S-[2-(4-fluorophenylcarbamoyl)-phenylselenyl]-N-acetyl-L-cysteine],61
5,N[C@@H](CS[Se]c1ccccc1C(=O)NCc1ccccc1)C(=O)O [S-(2-Benzylcarbamoyl-phenylselenyl)-L-cysteine],56
6,N[C@@H](CCC(=O)N[C@@H](CS[Se]c1ccccc1C(=O)Nc1ccccc1)C(=O)NCC(=O)O)C(=O)O [S-(2-Phenylcarbamoyl-phenylselenyl)-L-glutathione],100
7,COc1cccc(C(=O)Nc2ccccc2)c1[Se]SC[C@H](N)C(=O)O [S-(2-phenylcarbamoyl-6-methoxy-phenylselenyl)-L-cysteine],440
8,CC(C)(S[Se]c1ccccc1C(=O)Nc1ccccc1)[C@@H](N)C(=O)O [S-(2-phenylcarbamoyl-phenylselenyl)-D-penicillamine],25

# Assay: as above
# Type: biochemical
# Details: 1 millimolar concentration of glutathione with tert-butylhydroperoxide
row,Structure (SMILES),reaction rate
1,N[C@@H](CCC(=O)N[C@@H](CS[Se]c1ccccc1C(=O)Nc1ccccc1)C(=O)NCC(=O)O)C(=O)O [S-(2-Phenylcarbamoyl-phenylselenyl)-L-glutathione],"1,17×10^6 units per mol"
